Test results: patent US20260184700A1, “PDK1 REGULATORY COMPOUND AND COMPOSITION CONTAINING THE SAME” (PROVIBIO CO., LTD., priority 2024, published 2026)

Assays:
[1] = tested on: MRL/lpr mice; assay: Lupus animal model (MRL/lpr mice); type: in vivo, mouse; details: 41-week-old female MRL/lpr mice; GO15F (30 mg/kg), GO48 (1 mg/kg), GO88 (0.5 mg/kg) intraperitoneally once daily
Description: The MRL/MpJ-Faslpr/J (Hereinafter Referred to as “MRL/lpr”) used in this experiment is one of the representative animal models for systemic lupus erythematosus (SLE), known to produce various autoantibodies, including antinuclear antibodies, due to the lpr (lymphoproliferation) gene.
In this invention, the period up to 9 weeks of age was considered the pre-disease stage, and the period after 23 weeks of age was considered the post-disease stage, and efficacy verification experiments using this model were conducted.
MRL/lpr mice were imported from The Jackson Laboratory and acclimatized for one week in an SPF (Specific Pathogen Free) facility maintained at a temperature of 21-24° C., humidity of 40-60%, and a 12-hour light-dark cycle (lights on at 7:00 AM, lights off at 7:00 PM). […]
The serum separated at the time of necropsy of the lupus animal model was analyzed using the ‘IgG (Total) Mouse Uncoated ELISA Kit (Invitrogen, Cat. #88-50400)’ to measure the concentration of total IgG.
Capture antibody (anti-mouse IgG) diluted 1/250 in coating buffer was added to each well of a 96-well plate (Nunc™ MaxiSorp™ ELISA Plates, Uncoated, BioLegend, Cat. #423501) at 100 μl per well, and the plate was incubated at 4° C. for 16 hours.
To investigate the effect of GO15F administration on changes in the ratio of immune cells in the spleen of a lupus animal model, the spleens of mice administered each compound were excised, cells were extracted, and the cells were suspended in MACS buffer (autoMACS Washing Solution, Miltenyi Biotec., Cat. #130-092-987).
For flow cytometry analysis, FACS tubes (5 mL round tubes, Falcon, Cat. #352052) were used. To prevent non-specific binding of antibodies, 1 μg/mL of anti-mouse CD16/CD32 (InVivoPlus anti-mouse CD16/CD32, BioXCell, Cat. #BP0307) for 30 minutes to prevent non-specific binding of the antibody, then centrifuge at 1,500 rpm for 5 minutes and resuspend in 100 μL of MACS buffer.
For B cells, each FACS tube was stained with 1 μg/mL of FITC-conjugated anti-B220 antibody (eBioscience™, Cat. #11-0452-81) at 4° C. for 30 minutes, then washed with 2 mL of MACS buffer.
For T cells, each FACS tube was stained with 1 μg/mL PerCP-Cy5.5-conjugated anti-CD3 (Biolegend, Cat. #100218) at 4° C. for 30 minutes.
For macrophages, each FACS tube was stained with 1 μg/mL of PE-conjugated anti-CD11b antibody (Biolegend, Cat. #101207) and PerCP-Cy5.5-conjugated anti-F4/80 (Biolegend, Cat. #123128) and incubated at 4° C. for 30 minutes. The tubes were then washed with 2 mL of MACS buffer.
To investigate the effects of compound GO15F according to the present invention on systemic immune responses in a lupus animal model, gene expression analysis of cytokines in kidney tissue was performed as described in (1).
Each kidney tissue was used to isolate total RNA using TRIzol™ (Invitrozen, Cat. #15596018). RNA from each mouse was quantified at 1 μg using a micro-quantitative spectrophotometer (ThermoFisher Scientific, ND2000) and cDNA was synthesized.
The synthesized cDNA from each mouse was quantified to a concentration of 50 ng using a micro-quantitative spectrophotometer, and qPCR was performed for the cytokines ‘IL-2, IL-6, IL-10, IL-17, TNF-α, IFN-γ’ using a SYBR green probe (CFX96, BIO-RAD).
To investigate the effects of drug administration on renal tissue in MRL/lpr mice, the tissue was fixed in 10% neutral buffered formalin at room temperature, followed by stepwise ethanol penetration for dehydration. The tissue was then embedded in xylene and paraffin.
The blocked tissues were sectioned into 4 μm thick slices using a microtome, followed by deparaffinization, hydration, and staining.
Hematoxylin & Eosin staining, PAS staining, and Masson trichrome staining were performed for pathological evaluation of the tissues. […]

[2] = tested on: Collagen I in human lung fibroblasts MRC-5; assay: TGF-β-induced Collagen I expression in MRC-5 cells, Western blot; type: cell-based; details: MRC-5, TGF-β (5 ng/ml), GO88 0.5 μM and 1 μM, 24 hours
Protocol: To confirm that the compound of the present invention directly acts on fibrosis-related mechanisms, in vitro experiments were performed using human lung fibroblasts MRC-5 cell lines (Korea Cell Bank).
First, MRC-5 cells were seeded at 5×10^3 cells per well in a 6-well plate and stabilized for 24 hours.
Subsequently, experimental groups were established, including a control group, a group treated with TGF-β (5 ng/ml) alone, and groups treated with TGF-β and the compound GO88 from the present invention at concentrations of 0.5 μM and 1 μM, respectively.
After treating each group with the drugs for 24 hours, the cell medium was removed, and the cells were washed twice with cold PBS. Then, RIPA lysis buffer containing phosphatase inhibitor and protease inhibitor was added to each group to extract proteins.
The extracted proteins were incubated at 4° C. for 30 minutes, then centrifuged at 13,000 rpm for 15 minutes, and the supernatant was collected. The total protein concentration was measured using the BCA protein quantification method.
Subsequently, the proteins were separated by SDS-PAGE, transferred to a PVDF membrane, and Western blot analysis was performed.
The expression levels of Collagen I, a marker related to pulmonary fibrosis, were confirmed, with GAPDH used as an internal control.

For Nc1ncccc1C(=O)NCCCCCCCCCCCCN1CCNCC1 [Compound 14, 2-Amino-N-(12-(piperazin-1-yl)dodecyl)nicotinamide], the “hair growth on the facial region” value [1] was “hair growth was confirmed” and the “protein expression of Collagen I” value [2] was “inhibited in a concentration-dependent manner”.
